In PubChem BioAssay AID1259407 (Chemical Carcinogenesis Research Information System (CCRIS), 2018) one finds mutagenic call data, which are given here for six compounds.

Activity calls are given as the source filed them. How the calls were made is not given here.

The subject of the data set is CCRIS mutagenicity, Ames/micronucleus/aberration tests. Nature of the data set: CCRIS mutagenicity studies.
Where [1] appears, read: Test System: AMES SALMONELLA TYPHIMURIUM, Strain/Indicator: TA98, Metabolic Activation: NONE, Method: STANDARD PLATE.
Where [2] appears, read: Test System: AMES SALMONELLA TYPHIMURIUM, Strain/Indicator: TA100, Metabolic Activation: NONE, Method: STANDARD PLATE.
[3] abbreviates: Test System: AMES SALMONELLA TYPHIMURIUM, Strain/Indicator: TA102, Metabolic Activation: NONE, Method: STANDARD PLATE.

Take `CC1(C)C(C=C(Cl)Cl)C1C(=O)OC(C#N)c1ccc(F)c(Oc2ccccc2)c1` (stereo not drawn): the mutagenic call by setting is: (End Point: In vitro chromosomal aberrations, Test System: Human lymphocytes, Metabolic Activation: Male Sprague-Dawley rat, liver, S-9, Aroclor 1254) “inactive; negative”; (End Point: In vitro chromosomal aberrations, Test System: Human lymphocytes, Metabolic Activation: None) “inactive; negative”; (End Point: In vitro chromosomal aberrations, Test System: Human lymphocytes, Metabolic Activation: S-9 (No details given by DPR evaluator)) “inactive; negative”; (End Point: In vivo micronucleus, Test System: Bone marrow erythrocytes, Strain/Indicator: Bor:NMRI (SPF Han)/ Female, Species: Mouse, Route: Oral) “inactive; negative (no significant effect on frequency of micronucleated polychromatic ery”; (End Point: In vivo micronucleus, Test System: Bone marrow erythrocytes, Strain/Indicator: Bor:NMRI (SPF Han)/ Male, Species: Mouse, Route: Oral) “inactive; negative (no significant effect on frequency of micronucleated polychromatic ery”; (Test System: Ames Salmonella typhimurium, Strain/Indicator: TA98, Metabolic Activation: None, Method: Plate incorporation) “inactive; negative”. The mutagenic call reads like this: (Test System: Ames Salmonella typhimurium, Strain/Indicator: TA98, Metabolic Activation: S-9 (Additional details not given by DPR evaluator), Method: Plate incorporation) “inactive; negative”; (Test System: Ames Salmonella typhimurium, Strain/Indicator: TA100, Metabolic Activation: None, Method: Plate incorporation) “inactive; negative”; (Test System: Ames Salmonella typhimurium, Strain/Indicator: TA100, Metabolic Activation: S-9 (Additional details not given by DPR evaluator), Method: Plate incorporation) “inactive; negative”; (Test System: Ames Salmonella typhimurium, Strain/Indicator: TA1535, Metabolic Activation: None, Method: Plate incorporation) “inactive; negative”; (Test System: Ames Salmonella typhimurium, Strain/Indicator: TA1535, Metabolic Activation: S-9 (Additional details not given by DPR evaluator), Method: Plate incorporation) “inactive; negative”; (Test System: Ames Salmonella typhimurium, Strain/Indicator: TA1537, Metabolic Activation: None, Method: Plate incorporation) “inactive; negative”. Besides, the mutagenic call by setting is: (Test System: Ames Salmonella typhimurium, Strain/Indicator: TA1537, Metabolic Activation: S-9 (Additional details not given by DPR evaluator), Method: Plate incorporation) “inactive; negative”; (Test System: CHO-HGPRT, Strain/Indicator: CHO-Ki-BH4 cells, Metabolic Activation: None, Method: Forward mutation assay) “inactive; negative”; (Test System: CHO-HGPRT, Strain/Indicator: CHO-Ki-BH4 cells, Metabolic Activation: S-9 (No additional details presented by DPR evaluator), Method: Forward mutation assay) “inactive; negative”; (Test System: UDS Rat hepatocytes, Strain/Indicator: Thymidine incorporation, Metabolic Activation: None, Method: Autoradiography) “inactive; negative”.
Take `Cc1c(N)cc(N)cc1N`: the mutagenic call by setting is: (Test System: CHINESE HAMSTER CELLS, Strain/Indicator: CHO CELLS(HPRT)/6-THIOGUANINE, Metabolic Activation: NONE, Method: SUSPENSION/PLATE) “active; positive”; (Test System: CHINESE HAMSTER CELLS, Strain/Indicator: CHO CELLS(HPRT)/6-THIOGUANINE, Metabolic Activation: RAT LIVER S-9, AROCLOR 1254, Method: SUSPENSION/PLATE) “inactive; negative”.
As for `CC1(C)C=C(C(=O)O)C(C)(C)N1[O]`, the mutagenic call is, setting by setting: under setting [1], “inactive; negative”; under setting [2], “inactive; negative”; (Test System: AMES SALMONELLA TYPHIMURIUM, Strain/Indicator: TA102, Metabolic Activation: NONE, Method: STANDARD) “inactive; negative”; under setting [3], “inactive; negative”; (Test System: AMES SALMONELLA TYPHIMURIUM, Strain/Indicator: TA102, Metabolic Activation: XANTHINE OXIDASE, Method: STANDARD PLATE) “inactive; negative”; (Test System: AMES SALMONELLA TYPHIMURIUM, Strain/Indicator: TA104, Metabolic Activation: NONE, Method: STANDARD PLATE) “inactive; negative”. Further, the mutagenic call (Test System: AMES SALMONELLA TYPHIMURIUM, Strain/Indicator: TA104, Metabolic Activation: XANTHINE OXIDASE, Method: STANDARD PLATE) was “inactive; negative”.
`COC(=O)C1=C(C)NC(C)=C(C(=O)OCCc2ccc(N3CCN(C(c4ccccc4)c4ccccc4)CC3)cc2)C1c1cccc([N+](=O)[O-])c1` (stereo not drawn): the mutagenic call by setting is: (Test System: AMES SALMONELLA TYPHIMURIUM, Strain/Indicator: TA98, Metabolic Activation: NONE, Method: PREINCUBATION) “inactive; negative”; (Test System: AMES SALMONELLA TYPHIMURIUM, Strain/Indicator: TA98, Metabolic Activation: RAT, LIVER, S-9, PHENOBARBITAL AND 5,6-BENZOFLAVONE, Method: PREINCUBATION) “inactive; negative”; (Test System: AMES SALMONELLA TYPHIMURIUM, Strain/Indicator: TA100, Metabolic Activation: NONE, Method: PREINCUBATION) “inactive; negative”; (Test System: AMES SALMONELLA TYPHIMURIUM, Strain/Indicator: TA100, Metabolic Activation: RAT, LIVER, S-9, PHENOBARBITAL AND 5,6-BENZOFLAVONE, Method: PREINCUBATION) “inactive; negative”; (Test System: AMES SALMONELLA TYPHIMURIUM, Strain/Indicator: TA1535, Metabolic Activation: NONE, Method: PREINCUBATION) “inactive; negative”; (Test System: AMES SALMONELLA TYPHIMURIUM, Strain/Indicator: TA1535, Metabolic Activation: RAT, LIVER, S-9, PHENOBARBITAL AND 5,6-BENZOFLAVONE, Method: PREINCUBATION) “inactive; negative”. Besides, the mutagenic call by setting is: (Test System: AMES SALMONELLA TYPHIMURIUM, Strain/Indicator: TA1537, Metabolic Activation: NONE, Method: PREINCUBATION) “inactive; negative”; (Test System: AMES SALMONELLA TYPHIMURIUM, Strain/Indicator: TA1537, Metabolic Activation: RAT, LIVER, S-9, PHENOBARBITAL AND 5,6-BENZOFLAVONE, Method: PREINCUBATION) “inactive; negative”; (Test System: E. COLI, Strain/Indicator: WP2 UVRA, Metabolic Activation: NONE, Method: PREINCUBATION) “inactive; negative”; (Test System: E. COLI, Strain/Indicator: WP2 UVRA, Metabolic Activation: RAT, LIVER, S-9, PHENOBARBITAL AND 5,6-BENZOFLAVONE, Method: PREINCUBATION) “inactive; negative”.
With `O=C1c2ccccc2CN2C(=O)c3ccccc3CN12`, the mutagenic call was “inactive; negative” (Test System: AMES SALMONELLA TYPHIMURIUM, Strain/Indicator: TA98, Metabolic Activation: MOUSE, LIVER, S-9, PHENOBARBITAL AND 5,6-BENZOFLAVONE, Method: STANDARD PLATE); “inactive; negative” under setting [1]; “inactive; negative” (Test System: AMES SALMONELLA TYPHIMURIUM, Strain/Indicator: TA100, Metabolic Activation: MOUSE, LIVER, S-9, PHENOBARBITAL AND 5,6-BENZOFLAVONE, Method: STANDARD PLATE); “inactive; negative” under setting [2]; “inactive; negative” (Test System: AMES SALMONELLA TYPHIMURIUM, Strain/Indicator: TA102, Metabolic Activation: MOUSE, LIVER, S-9, PHENOBARBITAL AND 5,6-BENZOFLAVONE, Method: STANDARD PLATE); “inactive; negative” under setting [3].
`COC(=O)c1ccc(O)cc1`: the mutagenic call by setting is: under setting [1], “inactive; negative”; (Test System: AMES SALMONELLA TYPHIMURIUM, Strain/Indicator: TA98, Metabolic Activation: RAT, LIVER, S-9, AROCLOR 1254, Method: STANDARD PLATE) “inactive; negative”; under setting [2], “inactive; negative”; (Test System: AMES SALMONELLA TYPHIMURIUM, Strain/Indicator: TA100, Metabolic Activation: RAT, LIVER, S-9, AROCLOR 1254, Method: STANDARD PLATE) “inactive; negative”; (Test System: AMES SALMONELLA TYPHIMURIUM, Strain/Indicator: TA1535, Metabolic Activation: NONE, Method: STANDARD PLATE) “inactive; negative”; (Test System: AMES SALMONELLA TYPHIMURIUM, Strain/Indicator: TA1535, Metabolic Activation: RAT, LIVER, S-9, AROCLOR 1254, Method: STANDARD PLATE) “inactive; negative”. Besides, the mutagenic call was “inactive; negative” (Test System: AMES SALMONELLA TYPHIMURIUM, Strain/Indicator: TA1537, Metabolic Activation: NONE, Method: STANDARD PLATE); “inactive; negative” (Test System: AMES SALMONELLA TYPHIMURIUM, Strain/Indicator: TA1537, Metabolic Activation: RAT, LIVER, S-9, AROCLOR 1254, Method: STANDARD PLATE); “inactive; negative” (Test System: AMES SALMONELLA TYPHIMURIUM, Strain/Indicator: TA1538, Metabolic Activation: NONE, Method: STANDARD PLATE); “inactive; negative” (Test System: AMES SALMONELLA TYPHIMURIUM, Strain/Indicator: TA1538, Metabolic Activation: RAT, LIVER, S-9, AROCLOR 1254, Method: STANDARD PLATE); “inactive; negative” (Test System: E. COLI, Strain/Indicator: WP2, Metabolic Activation: NONE, Method: STANDARD PLATE); “inactive; negative” (Test System: E. COLI, Strain/Indicator: WP2, Metabolic Activation: RAT, LIVER, S-9, AROCLOR 1254, Method: STANDARD PLATE).
